Patent US20080292584A1 (priority 2005, published 2008)
Several values for one entry are separate records, joined by “and”; a condition that tells them apart may be missing. Equal values may be shown once. Read-outs that look alike come from different tables or passages of the source.

What was measured:
[1] = in vivo; Bruce et al. 1966; cited from earlier work
CYP2A6 = target: T1, CYP2A6 (Homo sapiens, UniProt P11509); test: Metabolism of metaxalone by expressed recombinant human CYP2A6 at 5 or 20 pmol (Example 4); conditions: for % Turnover Mean / [metaxalone] Mean / % Turnover % / [metaxalone]: 60 min; for % Turnover % / [metaxalone]: single replicates
T1 sequence (P11509 1-494): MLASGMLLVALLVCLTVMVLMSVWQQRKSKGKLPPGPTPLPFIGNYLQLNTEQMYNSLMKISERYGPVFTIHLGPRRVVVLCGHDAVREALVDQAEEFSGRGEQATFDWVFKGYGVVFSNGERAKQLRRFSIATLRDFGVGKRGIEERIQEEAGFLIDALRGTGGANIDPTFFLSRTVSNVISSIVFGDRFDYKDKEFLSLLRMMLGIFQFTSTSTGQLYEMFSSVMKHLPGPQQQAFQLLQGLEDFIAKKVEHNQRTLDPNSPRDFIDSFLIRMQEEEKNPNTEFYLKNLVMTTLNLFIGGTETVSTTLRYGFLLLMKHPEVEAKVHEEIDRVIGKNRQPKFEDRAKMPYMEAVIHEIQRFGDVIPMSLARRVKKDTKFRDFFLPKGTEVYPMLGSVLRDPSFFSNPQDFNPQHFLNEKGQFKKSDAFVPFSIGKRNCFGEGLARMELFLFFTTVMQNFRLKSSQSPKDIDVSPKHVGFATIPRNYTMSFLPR

[2] = 400 mg oral dosage form; humans; cited from earlier work
CYP2C19 = CYP2C19 (Homo sapiens, UniProt P33261);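 also: CYP2C19 incubations ran for 30 minutes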
CYP2C19, sequence (P33261 whole entry): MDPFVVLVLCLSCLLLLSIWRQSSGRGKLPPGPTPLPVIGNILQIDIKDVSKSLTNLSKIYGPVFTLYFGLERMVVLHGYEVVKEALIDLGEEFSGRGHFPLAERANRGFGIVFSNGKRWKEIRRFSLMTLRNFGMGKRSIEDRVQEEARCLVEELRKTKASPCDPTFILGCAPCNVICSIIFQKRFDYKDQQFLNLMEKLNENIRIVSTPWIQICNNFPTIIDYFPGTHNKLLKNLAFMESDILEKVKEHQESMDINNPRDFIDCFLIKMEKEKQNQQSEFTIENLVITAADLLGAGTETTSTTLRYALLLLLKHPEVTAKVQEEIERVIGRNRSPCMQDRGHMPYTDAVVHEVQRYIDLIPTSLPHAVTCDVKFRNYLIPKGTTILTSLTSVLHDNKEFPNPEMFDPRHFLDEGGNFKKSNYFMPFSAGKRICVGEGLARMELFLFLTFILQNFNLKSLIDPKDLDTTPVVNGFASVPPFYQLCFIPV
Method: Microsomes were prepared by differential centrifugation of liver homogenates pooled from at least ten human donors.
After a 5 minute preincubation, NADPH regenerating system (NRS) was added to initiate the reaction. CYP2A6 and CYP3A4 incubations were for 10 minutes. All other incubations were for 30 minutes.
Incubations for CYP2C8 were terminated by adding 1.0 mL of ACN, while all other incubations were terminated by adding 1.0 mL of methanol.
Vehicle control experiments were performed to establish a baseline value for enzyme activity. […] Four replicates were performed.
Two replicates were performed. […] No interference was detected in any of the metabolite assay methods used.

CYP2C8 = target: T2, CYP2C8 (Homo sapiens, UniProt P10632); test: Chemical inhibition of metaxalone turnover in human liver microsomes, CYP2C8 inhibitor quercetin; conditions: 1 mg/mL HLM, 60 min, with quercetin, single replicates
T2 sequence (P10632 1-490): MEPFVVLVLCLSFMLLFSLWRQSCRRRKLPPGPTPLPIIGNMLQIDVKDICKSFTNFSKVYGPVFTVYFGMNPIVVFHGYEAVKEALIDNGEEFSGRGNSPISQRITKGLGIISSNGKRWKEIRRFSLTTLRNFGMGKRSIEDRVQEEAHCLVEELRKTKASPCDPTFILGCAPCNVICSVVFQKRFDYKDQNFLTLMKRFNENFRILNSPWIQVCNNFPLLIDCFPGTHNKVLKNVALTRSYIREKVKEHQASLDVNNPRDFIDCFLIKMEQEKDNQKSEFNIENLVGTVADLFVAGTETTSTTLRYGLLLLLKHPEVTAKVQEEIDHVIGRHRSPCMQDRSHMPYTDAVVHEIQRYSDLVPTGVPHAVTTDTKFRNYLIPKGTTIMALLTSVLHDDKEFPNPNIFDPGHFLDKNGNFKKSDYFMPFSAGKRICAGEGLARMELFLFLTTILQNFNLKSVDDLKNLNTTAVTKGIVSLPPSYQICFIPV
Method: (§1) Human liver microsomes pooled from 15 individuals (male and female) (Pool HMMC-PL020; CellzDirect, Inc., In Vitro Products and Services Division) were used in some experiments of this study.
(§2) % Turnover=100−{[TA(final)]/[mean of TA(0 min)]}×100,
(§3) % Inhibition of Turnover=100{1−([TA(0 min)]−[TA(final-inhibitor)])/([TA(0 min)]−[TA(final-no inhibitor)])}.
(§4) The inhibitors or vehicle control were incubated with the pooled human liver microsomes (1 mg/mL) and NADPH (1 mM) in 0.1 M phosphate buffer, pH 7.4. […] Incubations were conducted in triplicate and terminated by addition of organic solvent. Samples were extracted and analyzed by LC-MS/MS as described above.

CYP2E1 = CYP2E1 (Homo sapiens, UniProt P05181); conditions: both, microsomes, 1 h, 0.75 μM, pH 7.4
CYP2E1, sequence (P05181 whole entry): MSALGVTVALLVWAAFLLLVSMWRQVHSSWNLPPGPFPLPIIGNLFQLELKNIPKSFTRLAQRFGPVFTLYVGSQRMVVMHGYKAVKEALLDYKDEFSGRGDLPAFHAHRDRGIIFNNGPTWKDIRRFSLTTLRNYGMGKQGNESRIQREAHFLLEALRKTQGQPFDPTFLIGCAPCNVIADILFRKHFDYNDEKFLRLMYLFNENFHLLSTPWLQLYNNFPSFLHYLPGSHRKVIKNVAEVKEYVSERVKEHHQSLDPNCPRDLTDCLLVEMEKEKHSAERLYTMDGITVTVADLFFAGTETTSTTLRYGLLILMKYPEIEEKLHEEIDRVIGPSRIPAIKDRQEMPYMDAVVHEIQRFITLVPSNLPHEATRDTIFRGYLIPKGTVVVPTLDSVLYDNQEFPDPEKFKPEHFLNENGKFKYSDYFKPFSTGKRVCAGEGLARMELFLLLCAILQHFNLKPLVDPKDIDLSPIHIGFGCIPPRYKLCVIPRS
Method: as §1, §2, §3, §4

CYP2D6 = CYP2D6 (Homo sapiens, UniProt P10635); test: Metabolism of metaxalone by expressed recombinant human CYP2D6 at 5 or 20 pmol (Example 4); conditions: for percent turnover / % Turnover Mean / [metaxalone] Mean / % Turnover % / [metaxalone]: 60 min; for % Turnover % / [metaxalone]: single replicates, listed as Metaxalone
CYP2D6, sequence (P10635 whole entry): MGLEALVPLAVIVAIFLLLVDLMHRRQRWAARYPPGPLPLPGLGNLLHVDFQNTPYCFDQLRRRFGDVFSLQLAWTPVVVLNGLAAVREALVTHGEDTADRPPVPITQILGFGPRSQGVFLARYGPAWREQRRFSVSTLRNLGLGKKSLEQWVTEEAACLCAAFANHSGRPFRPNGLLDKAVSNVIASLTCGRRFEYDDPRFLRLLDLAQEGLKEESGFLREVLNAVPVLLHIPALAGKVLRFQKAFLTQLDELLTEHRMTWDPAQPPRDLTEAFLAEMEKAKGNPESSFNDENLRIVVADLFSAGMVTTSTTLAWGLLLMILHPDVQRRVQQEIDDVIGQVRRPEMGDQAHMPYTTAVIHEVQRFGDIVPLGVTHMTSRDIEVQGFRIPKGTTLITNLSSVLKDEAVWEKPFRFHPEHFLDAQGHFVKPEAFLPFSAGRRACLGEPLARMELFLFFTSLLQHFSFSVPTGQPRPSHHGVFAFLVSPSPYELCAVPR
Method: For CYP2C9 and CYP2D6, SUPERSOMES singly-expressing different allelic variants of the cytochrome p450 isozyme were commercially available. For each of CYP2C9 and CYP2D6, only the *1 allele was tested in these experiments. […]

[3] = 0.75 μM metaxalone, 5 pmol cyp, listed as Metaxalone
[4] = 0.75 μM metaxalone, 20 pmol cyp
[5] = 0.75 μM metaxalone, 20 pmol cyp, listed as Metaxalone
[6] = 7.5 μM metaxalone, 5 pmol cyp, listed as Metaxalone
[7] = 7.5 μM metaxalone, 20 pmol cyp, listed as Metaxalone

Cc1cc(C)cc(OCC2CNC(=O)O2)c1 (stereo not shown) [metaxalone, 5-[(3,5-dimethylphenoxy)methyl]-2-oxazolidinone]
metaxalone converted to a carboxylic acid derivative [1]: 27%
% Turnover Mean (CYP2A6; 0.75 μM metaxalone, 5 pmol cyp): 0.14%
[metaxalone] Mean (CYP2A6; 0.75 μM metaxalone, 5 pmol cyp): 0.790 µM
% Turnover % (CYP2A6; 0.75 μM metaxalone, 5 pmol cyp): −4.1%
% Turnover % (CYP2A6; [3]): 1.8% and 2.8%
[metaxalone] (CYP2A6; [3]): 0.777 µM and 0.824 µM and 0.769 µM
% Turnover Mean (CYP2A6; [4]): 0.91%
[metaxalone] Mean (CYP2A6; [4]): 0.784 µM
% Turnover % (CYP2A6; [4]): −5.7%
% Turnover % (CYP2A6; [5]): 3.7% and 4.8%
[metaxalone] (CYP2A6; [5]): 0.837 µM and 0.762 µM and 0.753 µM
% Turnover Mean (CYP2A6; 7.5 μM metaxalone, 5 pmol cyp): 3.7%
[metaxalone] Mean (CYP2A6; 7.5 μM metaxalone, 5 pmol cyp): 8.14 µM
% Turnover % (CYP2A6; 7.5 μM metaxalone, 5 pmol cyp): −2.3%
% Turnover % (CYP2A6; [6]): 9.0% and 4.3%
[metaxalone] (CYP2A6; [6]): 7.69 µM and 8.08 µM and 8.64 µM
% Turnover Mean (CYP2A6; 7.5 μM metaxalone, 20 pmol cyp): −1.8%
[metaxalone] Mean (CYP2A6; 7.5 μM metaxalone, 20 pmol cyp): 8.59 µM
% Turnover % (CYP2A6; [7]): −1.6% and 6.1% and −9.8%
[metaxalone] (CYP2A6; [7]): 8.58 µM and 7.93 µM and 9.27 µM
Substrate (CYP2A6; CYP isozyme 2A6, summary of studies): 0
observed increase of extent of absorption (AUC0-inf) with food relative to fasted treatment [2]: 115.4%
observed increase of extent of absorption (AUC0-t) with food relative to fasted treatment [2]: 123.5%
observed increase of peak plasma concentration (Cmax) with food relative to fasted treatment [2]: 177.5%
inhibition of CYP activity at a statistically significant level (CYP2C19; 0.3-100 μM metaxalone, p≦0.05): inhibited
Inhibitor (CYP2C19; CYP isozyme 2C19, summary of studies): +
Percent of VC (CYP2C19; metaxalone 0.3 μM): 84.6%
Specific Activity Individual (CYP2C19; metaxalone 0.3 μM): 19.4 pmol/min/mg protein and 18.9 pmol/min/mg protein
Specific Activity Mean ± SD (CYP2C19; metaxalone 0.3 μM): 19.0 ± 0.399 pmol/min/mg protein
Percent of VC (CYP2C19; metaxalone 1 μM): 67.0%
Specific Activity Individual (CYP2C19; metaxalone 1 μM): 14.8 pmol/min/mg protein
Specific Activity Mean ± SD (CYP2C19; metaxalone 1 μM): 15.0 ± 0.186 pmol/min/mg protein
Percent of VC (CYP2C19; metaxalone 3 μM): 67.7%
Specific Activity Individual (CYP2C19; metaxalone 3 μM): 15.5 pmol/min/mg protein and 14.8 pmol/min/mg protein
Specific Activity Mean ± SD (CYP2C19; metaxalone 3 μM): 15.2 ± 0.317 pmol/min/mg protein
Percent of VC (CYP2C19; metaxalone 30 μM): 63.8%
Specific Activity Individual (CYP2C19; metaxalone 30 μM): 11.1 pmol/min/mg protein and 16.5 pmol/min/mg protein and 15.3 pmol/min/mg protein
Specific Activity Mean ± SD (CYP2C19; metaxalone 30 μM): 14.3 ± 2.82 pmol/min/mg protein
Percent of VC (CYP2C19; metaxalone 100 μM): 64.9%
Specific Activity Individual (CYP2C19; metaxalone 100 μM): 14.5 pmol/min/mg protein and 14.8 pmol/min/mg protein and 14.3 pmol/min/mg protein
Specific Activity Mean ± SD (CYP2C19; metaxalone 100 μM): 14.5 ± 0.274 pmol/min/mg protein
% Turnover (CYP2C8; 0.75 μM metaxalone): 14.3%
Conc. (CYP2C8; 0.75 μM metaxalone): 661 nM
% Turnover (CYP2C8; 7.5 μM metaxalone): −1.8%
% inhibition of turnover (CYP2C8; 7.5 μM metaxalone): 107%
% Turnover Mean (CYP2E1): −3.87%
percent turnover (CYP2D6; 0.75 μM metaxalone, 5 pmol CYP450): 9.9%
% Turnover Mean (CYP2D6; 0.75 μM metaxalone, 5 pmol cyp): 9.9%
[metaxalone] Mean (CYP2D6; 0.75 μM metaxalone, 5 pmol cyp): 0.642 µM
% Turnover % (CYP2D6; 0.75 μM metaxalone, 5 pmol cyp): 8.8% and 11.6% and 9.1%
[metaxalone] (CYP2D6; 0.75 μM metaxalone, 5 pmol cyp): 0.649 µM and 0.629 µM and 0.647 µM
percent turnover (CYP2D6; 0.75 μM metaxalone, 20 pmol CYP450): 19.5%
% Turnover Mean (CYP2D6; [4]): 19.5%
[metaxalone] Mean (CYP2D6; [4]): 0.573 µM
% Turnover % (CYP2D6; [4]): 23.3% and 16.7% and 18.5%
[metaxalone] (CYP2D6; [4]): 0.546 µM and 0.593 µM and 0.581 µM
percent turnover (CYP2D6; 7.5 μM metaxalone, 5 pmol CYP450): 12.6%
% Turnover Mean (CYP2D6; 7.5 μM metaxalone, 5 pmol cyp): 12.6%
[metaxalone] Mean (CYP2D6; 7.5 μM metaxalone, 5 pmol cyp): 6.74 µM
% Turnover % (CYP2D6; 7.5 μM metaxalone, 5 pmol cyp): 10.7% and 12.5% and 14.5%
[metaxalone] (CYP2D6; 7.5 μM metaxalone, 5 pmol cyp): 6.89 µM and 6.75 µM and 6.60 µM
percent turnover (CYP2D6; 7.5 μM metaxalone, 20 pmol CYP450): 24.9%
% Turnover Mean (CYP2D6; 7.5 μM metaxalone, 20 pmol cyp): 24.9%
[metaxalone] Mean (CYP2D6; 7.5 μM metaxalone, 20 pmol cyp): 5.79 µM
% Turnover % (CYP2D6; 7.5 μM metaxalone, 20 pmol cyp): 23.9% and 23.5% and 27.3%
[metaxalone] (CYP2D6; 7.5 μM metaxalone, 20 pmol cyp): 5.87 µM and 5.90 µM and 5.61 µM
Substrate (CYP2D6; CYP isozyme 2D6, summary of studies): +
